Earlier results, collected in patent US11622994B2, “Therapy for vitiligo” (Clinuvel Pharmaceuticals Limited, priority 2008, dated 2023).

Assays:
frog skin = frog skin bioassay; versus native alpha-MSH
[1] = test system: cultured human keratinocytes; conditions: versus native alpha-MSH

For Nle^4-D-Phe^7-alpha-MSH, which “potency relative to the native hormone at inducing pigmentation” value (frog skin) is on record?
The value was 10 to 1,000 fold.

And the “potency relative to the native hormone at inducing pigmentation” value [1]?
The value was 10 to 1,000 fold.

What about the melanin synthesis (human volunteers) of the same substance?
The melanin synthesis was “can induce melanin synthesis”.
